This note sets out measurements from PubChem BioAssay (NCI).

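The compound was tested at five concentrations on cells cultured in 96-well plates, with a 48-hour exposure period. The concentration for full growth arrest is given as TGI.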 Where a SMILES comes first, the peptide text is derived from it. The star is where a group is joined. Cbz = O=C(OCc1ccccc1)*; Boc = CC(C)(C)OC(=O)*; OBn = c1ccc(CO*)cc1

Common to all, as to assay: NCI anticancer screen, dose series, 48 h
In assay [1] the test system is OVCAR-8 ovarian.
Assay [2] relates to SK-MEL-2 melanoma.
Assay [3] relates to EKVX NSCLC.
Assay [4] relates to RPMI-8226 leukemia.
Assay [5] has as its system A549 NSCLC.
The subject of assay [6] is HT29 colon.
The subject of assay [7] is IGROV1 ovarian.
Assay [8] deals with MCF7 breast.
Assay [9] relates to OVCAR-5 ovarian.
In assay [10] the test system is HCC-2998 colon.
Assay [11] deals with KM12 colon.
In assay [12] the test system is SR leukemia.
In assay [13] the test system is OVCAR-3 ovarian.
Assay [14] has as its system SF-539 CNS.
Assay [15] has as its system UO-31 renal.
The subject of assay [16] is MDA-N.
Assay [17] concerns SNB-19 CNS.
Assay [18] relates to HCT-116 colon.
For assay [19], the system named is HL-60(TB) leukemia.

Regarding `COc1ccc(-c2cc(-c3ccccc3)nc3c2CC(=O)Nc2ccccc2-3)cc1OC`, the TGI was 0.447 µM in assay [1]; greater than 100 µM in assay [2]; greater than 100 µM in [3]; greater than 100 µM in [4]; greater than 36.3 µM in assay [5]; greater than 100 µM in [6]. For the same molecule, the TGI in [7] is greater than 100 µM; in assay [8], greater than 43.1 µM; in [9], greater than 100 µM; in assay [10], greater than 100 µM; in [11], greater than 100 µM; in assay [12] it was greater than 100 µM. Moreover, the TGI is greater than 100 µM in [13]; greater than 46.1 µM in assay [14]; greater than 100 µM in assay [15]; greater than 100 µM in assay [16]; greater than 100 µM in assay [17].
Take `S=C(c1c[nH]c2ccccc12)N1CCCCC1`: the TGI in assay [1], in [2], in assay [3], in assay [4], in assay [6] and in assay [7] was greater than 100 µM throughout. Also, the TGI in assay [18], in assay [8], in assay [9], in assay [11], in assay [12] and in assay [13] was greater than 100 µM in each case. Besides, the TGI in assay [14], in assay [19], in assay [16] and in [17] was greater than 100 µM throughout.
`O=P1(Oc2ccccc2)NCc2ncccc2O1` (stereo unspecified): the TGI in assay [1], in assay [2], in assay [3], in assay [4], in [5] and in assay [6] was greater than 100 µM throughout. For the same molecule, the TGI in [7], in assay [18], in assay [8], in assay [9], in [10] and in [11] was greater than 100 µM in each case. Also, the TGI in assay [12], in assay [13], in assay [14], in [15], in assay [16] and in assay [17] was greater than 100 µM each time.
With `Cc1nnc([C@@]2(C)CC[C@H]3[C@@H](CCC4=CC(=O)CC[C@@]43C)[C@@H]2CC#N)o1`, the TGI in assay [1], in [2], in assay [3], in assay [4], in assay [5] and in assay [6] was greater than 100 µM throughout. Further, the TGI in assay [7], in [18], in [8], in assay [9], in [11] and in [12] was greater than 100 µM each time. For the same molecule, the TGI in [13], in assay [14], in assay [19], in [15], in assay [16] and in assay [17] was greater than 100 µM in each case.
`COC(=O)C1=COc2c(n(C)c3ccccc23)-c2ccccc21`: the TGI in assay [1], in [2], in assay [3], in assay [4], in assay [6] and in [7] was greater than 100 µM in each case. Also, the TGI in [18], in [8], in [9], in assay [11], in assay [12] and in assay [13] was greater than 100 µM in each case. Moreover, the TGI in assay [14], in assay [19], in [15], in assay [16] and in [17] was greater than 100 µM throughout.
For `NC(=O)CNC(=O)[C@@H]1C[C@@H](OCCC(=O)O)CN1C(=O)OCc1ccccc1`, the TGI in assay [2], in [3], in [4], in [5], in assay [6] and in [7] was greater than 100 µM in each case. The TGI in [18], in [8], in assay [9], in assay [11], in [12] and in assay [13] was greater than 100 µM throughout. Moreover, the TGI in assay [19], in [15], in assay [16] and in assay [17] was greater than 100 µM in each case.
Regarding `O=c1[nH]c(=O)n2n1C1C=CC2CC1`, the TGI in assay [1], in assay [2], in assay [3], in [4], in [5] and in assay [6] was greater than 100 µM throughout. For the same molecule, the TGI in assay [7], in assay [18], in assay [8], in assay [9], in [11] and in [12] was greater than 100 µM each time. The TGI in [13], in assay [14], in [19], in assay [15], in assay [16] and in [17] was greater than 100 µM in each case.
As for `CC(=O)OC1[C@H](n2ccnc2)C[C@H]2[C@@H]3CC=C4CC(N5CCCC5)CC[C@]4(C)[C@H]3CC[C@]12C` (stereo partly specified), the TGI was greater than 100 µM in assay [1]; 54.7 µM in [2]; greater than 100 µM in assay [3]; greater than 100 µM in assay [4]; greater than 100 µM in [5]; greater than 100 µM in [6]. Moreover, the TGI in assay [7] is greater than 100 µM; in assay [18], greater than 100 µM; in assay [8], greater than 100 µM; in assay [9], greater than 100 µM; in assay [11] it was greater than 100 µM; in assay [12] it was 35.2 µM. In addition, the TGI is greater than 100 µM in assay [13]; 36.8 µM in assay [14]; 81.3 µM in assay [19]; greater than 100 µM in [15]; greater than 100 µM in [16]; greater than 100 µM in assay [17].
Turning to `O=C1C2CC=CCC2C(=O)N1n1c(Cc2ccccc2)n[nH]c1=O` (stereo unspecified), the TGI in [1], in assay [2], in assay [3], in [4], in assay [5] and in assay [6] was greater than 100 µM each time. Also, the TGI in [7], in assay [18], in assay [8], in assay [9], in [10] and in [11] was greater than 100 µM in each case. The TGI in assay [12], in assay [13], in assay [14], in [15], in [16] and in assay [17] was greater than 100 µM each time.
For the molecule `CCOC(=O)CNC(=O)C(C)NC(=O)C(NC(=O)OCc1ccccc1)C(C)C` (stereo not drawn) (Cbz-Val-Ala-Gly-OEt; configuration not given here), the TGI in assay [1], in assay [2], in assay [3], in assay [4], in assay [5] and in [6] was greater than 100 µM in each case. Further, the TGI in assay [7], in assay [18], in assay [8], in [9], in assay [10] and in assay [11] was greater than 100 µM throughout. Also, the TGI in assay [12], in assay [13], in assay [14], in assay [15], in [16] and in assay [17] was greater than 100 µM throughout.
In the case of `CC(C)CC(NC(=O)C(Cc1ccccc1)NC(=O)C(Cc1ccccc1)NC(=O)OC(C)(C)C)C(=O)OCc1ccccc1` (stereo not drawn) (Boc-Phe-Phe-Leu-OBn; configuration not given here), the TGI in assay [1], in [2], in [3], in assay [4], in assay [5] and in assay [6] was greater than 100 µM in each case. The TGI in assay [7], in assay [18], in [8], in [9], in [11] and in assay [12] was greater than 100 µM in each case. The TGI in assay [13], in assay [14], in assay [19], in [15], in [16] and in assay [17] was greater than 100 µM throughout.
On to `Cc1nn(-c2ccccc2)c2nc3ccc(Cl)cc3c(-c3ccccc3)c12`, for which the TGI in [1], in assay [2], in assay [3], in assay [4], in assay [5] and in assay [6] was greater than 100 µM throughout. In addition, the TGI in [7], in [18], in assay [8], in assay [9], in assay [10] and in assay [11] was greater than 100 µM in each case. The TGI in assay [12], in assay [13], in [15], in assay [16] and in assay [17] was greater than 100 µM throughout.
Take `COc1ccccc1/C=C/c1nc2ccccc2o1`: the TGI in [1], in [2], in assay [3], in assay [4], in assay [5] and in assay [6] was greater than 10 µM throughout. Further, the TGI in [7], in [18], in assay [8], in assay [9], in assay [10] and in assay [11] was greater than 10 µM in each case. Also, the TGI in [12], in assay [13], in assay [14], in assay [16] and in [17] was greater than 10 µM in each case.
For `N#CCCN(CCC#N)c1ccc(C(N=Nc2ccc(Cl)cc2)=Nc2ccc(Cl)cc2)cc1`, the TGI in assay [1] is 31.4 µM; in [2] it was 25 µM; in assay [3] it was 85.3 µM; in [4], greater than 100 µM; in assay [5] it was 41 µM; in [6], 44.6 µM. The TGI in [7] was 28.1 µM; in assay [18], 36.5 µM; in [8], 24.7 µM; in assay [9], 43.8 µM; in assay [10], 27.1 µM; in [11], 44.1 µM. For the same molecule, the TGI in assay [12] was greater than 100 µM; in [13], 36.9 µM; in assay [14] it was 38.6 µM; in assay [15], 29.4 µM; in assay [16], 40.8 µM; in [17] it was 53.3 µM.
In the case of `CCn1c(=O)c2c3cc(OC(C)=O)ccc3oc2c2ccc(OC(C)=O)cc21`, the TGI in assay [1] was greater than 100 µM; in assay [3] it was 70.3 µM; in assay [5] it was greater than 100 µM; in assay [6], greater than 100 µM; in assay [7] it was greater than 100 µM; in [18], greater than 100 µM. Besides, the TGI in assay [8] was greater than 100 µM; in assay [10], 58.2 µM; in [11] it was greater than 100 µM; in [12] it was greater than 100 µM; in assay [13] it was greater than 100 µM; in [14], 94.3 µM. The TGI in assay [15] is 83 µM; in assay [16], greater than 100 µM; in [17] it was greater than 100 µM.
For `O=C(CCc1ccc(O)cc1)NCCCNC(=O)CCc1ccc(O)cc1`, the TGI in assay [1], in assay [2], in assay [4], in [5], in assay [6] and in [7] was greater than 100 µM in each case. Also, the TGI in assay [18], in assay [8], in [9], in assay [10], in assay [11] and in assay [12] was greater than 100 µM in each case. Also, the TGI in assay [13], in assay [14], in [15], in [16] and in assay [17] was greater than 100 µM throughout.
